Source: patent US11020414B2, “Antimicrobial compositions with cysteamine” (priority 2010, dated 2021)
Converted amounts (≈) assume the structure as drawn. “And” between values parts separate entries of the source, which are not always exact repeats. Equal entries are not always repeated.

What was measured:
[1] = system: P. aeruginosa PAO1 biofilm; experiment: Minimum biofilm eradication concentration against established biofilm (FIG. 4); assay type: cell-based, Pseudomonas aeruginosa
[2] = system: Pseudomonas aeruginosa Pa01; experiment: FIC index of combinations with conventional antibiotics, strain Pa01; assay type: cell-based; settings: strain Pa01 (Col^R), listed as Cysteamine (NM001)
Description: (§1) The bacterial inoculum was established by the dilution method from actively-growing cultures in Mueller-Hinton (MH) broth, standardized with 0.5 McFarland turbidity standard as described in the CLSI method M26-A.
(§2) Both the bacterial inoculum and the antimicrobial agents, including the compounds structurally related to cysteamine, were added simultaneously to the plates. The plates were incubated at 37° C. for 24 h and the optical density was read at 625 nm on a microtitre plate reader (BioTek Powerwave XS, Winooski, USA). The MIC was obtained as the lowest concentration of antimicrobial showing total inhibition of bacterial growth.
(§3) The FIC corresponds to an interaction coefficient indicating whether the combination of antimicrobial agents is synergistic, additive, antagonist or neutral. The FIC is determined by comparing the activity of an agent in combination (MIC of agent A+agent B) with the activity of the agent alone (MIC of agent A or agent B) as follow (Singh et al., 2000): FIC=MICA[combination]/MICA[alone]+MICB[combination]/MICB[alone]
(§4) Additive combinations of two antimicrobial agents are indicated by a FIC index of 1, whereas a FIC index<1 indicates synergistic combinations. Neutral combinations would give a FIC between 1 and 4, a FIC index higher than 4 indicates antagonist effects between the two antimicrobial agents.
(§5) The FIC was also calculated to assess the interaction of two antimicrobial agents in combination against bacterial samples.

[3] = system: Pseudomonas aeruginosa NH57388A; experiment: MIC determination, strain NH57388A; assay type: cell-based
Description: as §1
(§6) Both the bacterial inoculum and the antimicrobial agents, including the compounds structurally related to cysteamine, were added simultaneously to the plates. The plates were incubated at 37° C. for 24 h and the optical density was read at 625 nm on a microtitre plate reader (BioTek Powerwave XS, Winooski, USA). […]
(§7) A number of compounds related in chemical structure to cysteamine were examined for antimicrobial activity; cystamine (dihydrochloride salt), taurine and 2,3-dimercaptosuccinic acid. Other compounds chemically related to cysteamine are known, but are toxic, and are therefore of no utility in a drug of this nature.

[4] = system: Pseudomonas aeruginosa Pa058; experiment: MIC determination, strain Pa058; assay type: cell-based
Description: as §1, §6, §7

[5] = system: Pseudomonas aeruginosa Pa57388A; experiment: FIC index of combinations with conventional antibiotics, strain Pa57388A; assay type: cell-based; settings: strain Pa57388A (Col^R), listed as Cysteamine (NM001)
Description: as §1, §2, §3, §4, §5

[6] = system: P. aeruginosa PAO1 planktonic cells; experiment: MIC in physiologically-relevant ionic concentrations (FIG. 7); assay type: cell-based, Pseudomonas aeruginosa
Description: Bacterial growth was followed over a 24 h period and absorbance read using a BioTek microtitre plate reader at 625 nm. Total bacterial growth inhibition was retained in the presence of NaCl, CaCl2 or DNA and at two-fold the normal MIC100 in the presence of mucin. Tobramycin activity was inhibited in the presence of the divalent cation ca^2+ and in the presence of the anionic polymer DNA. […] A similar method as described above (1.4) was used for the determination of the antimicrobial activity of cysteamine (Lynovex®) in the presence of high ionic concentrations. […] Bacterial growth was followed over a 24 h period and absorbance read using a BioTek microtitre plate reader at 625 nm.

[7] = system: Pseudomonas planktonic cells; experiment: Antibacterial activity of Tobramycin and cysteamine, separately and combined (FIG. 1); assay type: cell-based; settings: FIG. 1b
Description: FIG. 1A and FIG. 1B: provide a comparison of the antibacterial activity of Tobramycin and cysteamine (NM001) against Pseudomonas planktonic cells when administered separately, and in combined form. NM001 reduces the MIC of Tobramycin against planktonic cells by at least 4-fold (FIG. 1b)
as §2

Question: Which results are given for NCCS [Cysteamine, cysteamine]?
Answer: minimum biofilm eradication concentration (MBEC), agent alone [1]: 1000 µg/mL; FICI (Additive) Col ([2]; in combination with Colistin): 0.53 and 0.56; FICI (Synergy) Col ([2]; in combination with Colistin): 0.38 and 0.31 and 0.25; FICI (Additive) Gent ([2]; in combination with Gentamicin): 0.5 and 0.53 and 0.63; FICI (Synergy) Gent ([2]; in combination with Gentamicin): 0.38; FICI (Additive) Tob ([2]; in combination with Tobramycin): 0.63; FICI (Synergy) Tob ([2]; in combination with Tobramycin): 0.31 and 0.28 and 0.25; MIC50 [3]: 250 µg/mL (≈ 3.24 mM); MIC90 [3]: 250 to 500 µg/mL (≈ 3.24 to 6.48 mM); MIC ([3]; read-out: MIC100): 667 µg/mL (≈ 8.64 mM); MIC50 [4]: 500 µg/mL (≈ 6.48 mM); MIC90 [4]: 1000 µg/mL (≈ 13 mM); MIC ([4]; read-out: MIC100): 1000 µg/mL (≈ 13 mM); FICI (Additive) Cip ([5]; in combination with Ciprofloxacin): 0.63; FICI (Additive) Col ([5]; in combination with Colistin): 0.52 and 0.51 and 0.63 and 0.56; FICI (Synergy) Col ([5]; in combination with Colistin): 0.38 and 0.31; FICI (Additive) Gent ([5]; in combination with Gentamicin): 0.5 and 0.56 and 0.75; FICI (Synergy) Gent ([5]; in combination with Gentamicin): 0.38; FICI (Additive) Tob ([5]; in combination with Tobramycin): 0.63 and 0.75 and 0.5 and 0.56; FICI (Synergy) Tob ([5]; in combination with Tobramycin): 0.31 and 0.38; total bacterial growth inhibition (MIC100) versus normal condition ([6]; in the presence of 150 mM NaCl, 1.7 mM CaCl2 or 1 mg/ml DNA): retained; concentration for total growth inhibition relative to the normal MIC100 ([6]; in the presence of 1% (w/v) porcine gastric mucin): two-fold; reduction of the MIC of Tobramycin by NM001 [7]: at least 4 fold
